Data set [1] in a line: pH measurement of solutions (pH meter). Type of data set: physicochemical. As for the experimental part: A solution containing disodium EDTA that was pH adjusted using base was prepare by the following method: • 1. Weigh out 300 mg disodium EDTA powder in 30 ml vial, and dissolve in 9.3 mL sterile water. Shake EDTA and sterile water until completely dissolved. QS to 10 ml with water. […] Measure pH, Add 1M NaOH recording volume added and remeasure pH.
A solution containing tetrasodium EDTA pH adjusted with disodium EDTA was prepared by the following method: • 1. Weigh out 300 mg disodium EDTA powder in 30 ml vial, and dissolve in 9.3 mL sterile water. Shake EDTA and sterile water until completely dissolved. QS to 10 ml with water. […] Weigh out 300 mg tetrasodium EDTA powder in 30 ml vial, and dissolve in 9.3 mL sterile water. Shake EDTA and sterile water until completely dissolved. QS to 10 ml with water. […] Measure pH of tetrasodium EDTA and add disodium EDTA recording volume added and pH after each addition • The following solutions were produced:
7. Prepare 19 syringes with 1 mL in each syringe. (1-3 mL sterile syringe can be used) Label the syringes and protect from light. • The pH from seven syringes, sampled randomly, were measured using a pH meter.

The conditions of data set [2]: cited from earlier work; for fraction of EDTA that is tetravalent: 0.1 Molar (Harris 2010).

Where two headings read alike, the source gives them in different places.

In data set [1] (in water/ethanol, Example 1), `O=C(O)CN(CCN(CC(=O)O)CC(=O)O)CC(=O)O` [pure tetra-acid EDTA, Ethylenediamine-N,N,N′,N′,-tetraacetic acid] showed a pH of 3.1. In addition, the “fraction of EDTA that is tetravalent” value in data set [2] (pH 6, 20 degrees Celsius) is on record as “about 0.000018”; in data set [2] (pH 8, 20 degrees Celsius), “about 0.0042”.

For `O=C([O-])CN(CCN(CC(=O)O)CC(=O)O)CC(=O)[O-].[Na+].[Na+]` [3% disodium EDTA, Ethylenediamine-N,N,N′,N′,-tetraacetic acid, disodium salt], the pH was 4.5 in data set [1] (10 ml 3% disodium EDTA, total volume 1M NaOH added 0); 4.9 in data set [1] (10 ml 3% disodium EDTA, total volume 1M NaOH added 0.5 ml); 5.4 in data set [1] (10 ml 3% disodium EDTA, total volume 1M NaOH added 1.0 ml); 6.9 in data set [1] (10 ml 3% disodium EDTA, total volume 1M NaOH added 1.5 ml); 7.4 in data set [1] (10 ml 3% disodium EDTA, total volume 1M NaOH added 1.7 ml).

For `O=C([O-])CN(CCN(CC(=O)[O-])CC(=O)[O-])CC(=O)[O-].[Na+].[Na+].[Na+].[Na+]` [3% tetrasodium EDTA, Ethylenediamine-N,N,N′,N′-tetraacetic acid, tetrasodium salt], the pH in data set [1] (5 ml 3% tetrasodium EDTA, total volume 3% disodium EDTA added 0) is given as 10.9; in data set [1] (5 ml 3% tetrasodium EDTA, total volume 3% disodium EDTA added 1 ml) it was 10.2; in data set [1] (5 ml 3% tetrasodium EDTA, total volume 3% disodium EDTA added 2 ml) it was 9.5; in data set [1] (5 ml 3% tetrasodium EDTA, total volume 3% disodium EDTA added 3 ml) it was 9.0; in data set [1] (5 ml 3% tetrasodium EDTA, total volume 3% disodium EDTA added 4 ml) it was 8.8; in data set [1] (5 ml 3% tetrasodium EDTA, total volume 3% disodium EDTA added 5 ml) it was 8.1. The same compound registered a pH in data set [1] (5 ml 3% tetrasodium EDTA, total volume 3% disodium EDTA added 6 ml) of 7.1.

Regarding `O=C([O-])CN(CCN(CC(=O)[O-])CC(=O)O)CC(=O)[O-].[Na+].[Na+].[Na+]` [Trisodium EDTA, Ethylenediamine-N,N,N′,N′,-tetraacetic acid, trisodium salt], the pH in data set [2] (vendor product (Dissolvine NA3-36)) is 9.5.

These data come from US20170151373A1, “ANTIMICROBIAL SOLUTIONS WITH ENHANCED STABILITY” (Board of Regents, The University of Texas System, priority 2015, published 2017).
